Reference: patent US20260061027A1 (NeuroTher, LLC, priority 2024, published 2026)

Experiment: In vitro metabolic stability of hepatocytes
Settings: Mouse hepatocytes, 0.5 ×10^6 cells/mL

**Q.** For `O=c1ccc2ccc(O)cc2o1` [7-Hydroxycoumarin], which “T1/2” value is on record?
**A.** Its value is 3.0 min.
